Source: patent US20170303543A1, “AGRICHEMICAL COMPOSITIONS AND METHODS OF MAKING AND USING SAME” (priority 2014, published 2017)

Tested on: Xanthomonas alfalfae
Assay: Alamar Blue assay for antimicrobial activity (FIG. 11)
Assay type: cell-based
Conditions: metallic zinc concentration as low as 50 PPM, components at relevant concentrations
Text: FIG. 11A, FIG. 11B, FIG. 11C and FIG. 11D show a series of images illustrating Alamar Blue assay in accordance with the embodiments. […] It is to be understood that this disclosure is not limited to the foregoing particular embodiments described, as such may, of course, vary. It is also to be understood that the terminology used herein is for the purpose of describing particular embodiments only, and is not intended to be limiting, since the scope of the present disclosure will be limited only by the appended claims.

Compound	antimicrobial effect against Xanthomonas alfalfae
[Zn+2] [divalent zinc ion]	did not elicit similar effect
OO [hydrogen peroxide]	did not elicit similar effect
NC(N)=O [urea]	did not elicit similar effect
